From PMC11579512, “Deoxybouvardin-glucoside induces apoptosis in non-small cell lung cancer cells by targeting EGFR/MET and AKT signaling pathway” (EXCLI Journal, 2024)
Where two headings read alike, the source gives them in different places.

How the values were obtained:
HCC827GR cells [1] = test: MTT viability after NAC pretreatment, HCC827GR; assay type: cell-based, human; conditions: for cell viability (relative to untreated = 100.00): HCC827GR
Procedure: (§1) All culture media were supplemented with FBS (10 %) and P/S (1 %), and the cells were grown at 37 °C in 5 % CO2.
(§2) The cells were treated with MTT and incubated for 2 h. The supernatants were removed, and the remaining formazan crystals were dissolved in DMSO before absorbance measurement at 570 nm using a Multiscan GO spectrophotometer (Thermo Fisher Scientific, Vantaa, Finland).

HaCaT cells = tested on: HaCaT cells
Procedure: as §1, §2

HCC827GR cells [2] = tested on: HCC827GR cells
Procedure: as §1, §2

CDK4 = test: Immunoblot CDK4 in HCC827 and HCC827GR cells; assay type: cell-based, human; conditions: for CDK4 protein ratio: relative to DBG 0 nM = 1.00
Procedure: (§3) HaCaT cells were grown in DMEM, whereas HCC827 and HCC827GR cells were grown in RPMI 1640. All culture media were supplemented with FBS (10 %) and P/S (1 %), and the cells were grown at 37 °C in 5 % CO2.
(§4) Cells were lysed in RIPA buffer, and protein concentration was determined using a Bio-Rad DC Protein Assay kit (Bio-Rad, Hercules, CA, USA). Protein samples from the cell lysates were resolved by sodium dodecyl sulfate-polyacrylamide gel electrophoresis and then transferred onto polyvinylidene fluoride membranes. The membranes were blocked with 3 % or 5 % skim milk and then incubated at 4 °C overnight with the indicated primary antibodies, followed by the corresponding horseradish peroxidase-conjugated secondary antibodies at RT for 2 h. Protein bands were visualized using western blotting luminol reagent solution and ImageQuant LAS 500 (GE Healthcare, Uppsala, Sweden). The density of the bands was quantified using ImageJ software (NIH, Bethesda, MD, USA).

[3] = tested on: cytochrome c (mitochondrial); test: Immunoblot mitochondrial cytochrome c in HCC827 and HCC827GR cells; assay type: cell-based, human; conditions: for cyto c (mitosol) protein Ratio: DBG 0 nM = 1.00
Procedure: as §4
The cells were suspended in plasma membrane extraction buffer [250 mM sucrose, 10 mM HEPES (pH 8.0), 10 mM KCl, 1.5 mM MgCl2• 6H2O, 1 mM EGTA, 1 mM EDTA, 0.1 mM PMSF, 0.01 mg/ml aprotinin, and 0.01 mg/ml leupeptin], and 0.1 % digitonin was added for vortexing (1 min). The supernatant was collected as the cytosolic fraction. The pellet was resuspended in plasma membrane extraction buffer containing 0.5 % Triton X-100. The lysates were centrifuged at 13,000 rpm for 30 min to separate the mitochondrial fraction.

EGFR = molecular target: T1, EGFR (Homo sapiens, UniProt P00533); test: In vitro ADP-Glo kinase assay, EGFR; assay type: biochemical
T1 construct: purchased Promega
Procedure: Subsequently, each well was added with ADP-Glo reagent and incubated for another 40 min. After completion of the kinase reaction, each well was added with kinase activity detection reagent and then incubated for 30 min. Liquid was dispensed with I.DOT (Dispendix, Stuttgart, Germany). Luminescence was measured on a Centro LB 960 microplate luminometer (Berthold Technologies).

HCC827 cells = test: MTT viability after NAC pretreatment, HCC827; assay type: cell-based, human; conditions: for cell viability (relative to untreated = 100.00): HCC827
Procedure: as §1, §2

p-MET (Y1234/1235) = test: Western blot p-MET (Y1234/1235) in HCC827 and HCC827GR cells; assay type: cell-based, human; conditions: DBG 3, 6, 12 nM, 48 h
Procedure: as §3, §4

[4] = NAC 4 mM + DBG 12 nM, mean of 3
[5] = NAC 4 mM + DBG 12 nM, replicate 1
[6] = NAC 4 mM + DBG 12 nM, replicate 2
[7] = NAC 4 mM + DBG 12 nM, replicate 3

T1 sequence (P00533 25-1210): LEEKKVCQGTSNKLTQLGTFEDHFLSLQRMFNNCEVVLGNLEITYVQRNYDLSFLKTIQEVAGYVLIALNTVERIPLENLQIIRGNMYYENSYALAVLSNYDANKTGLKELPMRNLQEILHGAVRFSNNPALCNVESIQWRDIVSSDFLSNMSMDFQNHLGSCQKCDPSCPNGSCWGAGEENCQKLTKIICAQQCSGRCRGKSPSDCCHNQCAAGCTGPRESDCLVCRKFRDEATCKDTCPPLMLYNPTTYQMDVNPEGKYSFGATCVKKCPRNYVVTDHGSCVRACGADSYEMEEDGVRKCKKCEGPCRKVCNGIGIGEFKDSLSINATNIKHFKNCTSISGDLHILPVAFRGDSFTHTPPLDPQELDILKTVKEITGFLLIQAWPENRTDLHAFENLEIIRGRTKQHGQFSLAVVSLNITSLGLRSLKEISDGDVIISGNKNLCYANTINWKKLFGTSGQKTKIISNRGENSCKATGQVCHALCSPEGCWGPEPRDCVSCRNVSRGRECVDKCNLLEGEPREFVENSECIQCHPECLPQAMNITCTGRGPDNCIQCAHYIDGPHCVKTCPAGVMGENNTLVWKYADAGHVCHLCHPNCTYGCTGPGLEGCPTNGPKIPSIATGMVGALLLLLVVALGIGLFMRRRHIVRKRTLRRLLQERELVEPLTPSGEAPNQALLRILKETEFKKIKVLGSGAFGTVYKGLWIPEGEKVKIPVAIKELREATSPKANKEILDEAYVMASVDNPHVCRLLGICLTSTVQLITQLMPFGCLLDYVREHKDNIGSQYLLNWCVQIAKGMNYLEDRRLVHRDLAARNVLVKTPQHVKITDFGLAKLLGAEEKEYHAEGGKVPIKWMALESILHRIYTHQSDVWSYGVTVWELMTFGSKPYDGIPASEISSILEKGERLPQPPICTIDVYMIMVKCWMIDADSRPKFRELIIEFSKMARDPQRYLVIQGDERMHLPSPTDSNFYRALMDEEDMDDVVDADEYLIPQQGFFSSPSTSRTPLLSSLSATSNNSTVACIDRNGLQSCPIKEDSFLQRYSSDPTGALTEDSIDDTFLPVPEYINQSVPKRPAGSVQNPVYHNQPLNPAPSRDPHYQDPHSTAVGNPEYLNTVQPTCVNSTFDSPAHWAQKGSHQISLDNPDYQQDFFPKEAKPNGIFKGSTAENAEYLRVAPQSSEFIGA

## COc1ccc(C[C@H]2C(=O)N[C@@H](C)C(=O)N(C)[C@H]3Cc4ccc(cc4)Oc4cc(ccc4O[C@@H]4O[C@H](CO)[C@@H](O)[C@H](O)[C@H]4O)C[C@@H](C(=O)N[C@H](C)C(=O)N[C@@H](C)C(=O)N2C)N(C)C3=O)cc1 [DBG, deoxybouvardin glucoside]
HCC827GR cells [1]; DBG 12 nM, mean of 3
  cell viability (relative to untreated = 100.00): 38.91
HCC827GR cells [1]; DBG 12 nM, replicate 1
  cell viability (relative to untreated = 100.00): 39.88
HCC827GR cells [1]; DBG 12 nM, replicate 2
  cell viability (relative to untreated = 100.00): 38.76
HCC827GR cells [1]; DBG 12 nM, replicate 3
  cell viability (relative to untreated = 100.00): 38.08
HCC827GR cells [1]; [4]
  cell viability (relative to untreated = 100.00): 99.25
HCC827GR cells [1]; [5]
  cell viability (relative to untreated = 100.00): 100.78
HCC827GR cells [1]; [6]
  cell viability (relative to untreated = 100.00): 98.32
HCC827GR cells [1]; [7]
  cell viability (relative to untreated = 100.00): 98.66
HCC827GR cells [1]; NAC 4 mM, 3 h, DBG 48 h
  anticancer activity of DBG after NAC pretreatment: decreased
HCC827GR cells [1]; NAC 4 mM, DBG 12 nM
  cytotoxicity after NAC pretreatment: a little, if any, cytotoxicity only at 12 nM
HaCaT cells; 24 h, DBG 3 nM, replicate 1
  cell viability: 103.33%
HaCaT cells; 24 h, DBG 3 nM, replicate 2
  cell viability: 102.45%
HaCaT cells; 24 h, DBG 3 nM, replicate 3
  cell viability: 101.31%
HaCaT cells; 24 h, DBG 6 nM, replicate 1
  cell viability: 101.02%
HaCaT cells; 24 h, DBG 6 nM, replicate 2
  cell viability: 102.90%
HaCaT cells; 24 h, DBG 6 nM, replicate 3
  cell viability: 101.77%
HaCaT cells; 24 h, DBG 12 nM, replicate 1
  cell viability: 101.52%
HaCaT cells; 24 h, DBG 12 nM, replicate 2
  cell viability: 102.50%
HaCaT cells; 24 h, DBG 12 nM, replicate 3
  cell viability: 100.11%
HaCaT cells; 48 h, DBG 3 nM, replicate 1
  cell viability: 101.48%
HaCaT cells; 48 h, DBG 3 nM, replicate 2
  cell viability: 104.66%
HaCaT cells; 48 h, DBG 3 nM, replicate 3
  cell viability: 100.09%
HaCaT cells; 48 h, DBG 6 nM, replicate 1
  cell viability: 97.99%
HaCaT cells; 48 h, DBG 6 nM, replicate 2
  cell viability: 98.42%
HaCaT cells; 48 h, DBG 6 nM, replicate 3
  cell viability: 101.29%
HaCaT cells; 48 h, DBG 12 nM, replicate 1
  cell viability: 98.16%
HaCaT cells; 48 h, DBG 12 nM, replicate 2
  cell viability: 94.89%
HaCaT cells; 48 h, DBG 12 nM, replicate 3
  cell viability: 94.68%
HaCaT cells; DBG 3, 6, 12 nM
  viability, in words: did not affect
HCC827GR cells [2]; 24 h, DBG 3 nM, replicate 1
  cell viability: 88.10%
HCC827GR cells [2]; 24 h, DBG 3 nM, replicate 2
  cell viability: 92.63%
HCC827GR cells [2]; 24 h, DBG 3 nM, replicate 3
  cell viability: 91.95%
HCC827GR cells [2]; 24 h, DBG 6 nM, replicate 1
  cell viability: 81.14%
HCC827GR cells [2]; 24 h, DBG 6 nM, replicate 2
  cell viability: 86.21%
HCC827GR cells [2]; 24 h, DBG 6 nM, replicate 3
  cell viability: 84.35%
HCC827GR cells [2]; 24 h, DBG 12 nM, replicate 1
  cell viability: 77.73%
HCC827GR cells [2]; 24 h, DBG 12 nM, replicate 2
  cell viability: 74.83%
HCC827GR cells [2]; 24 h, DBG 12 nM, replicate 3
  cell viability: 73.57%
HCC827GR cells [2]; 48 h
  IC50: 8.65 nM
HCC827GR cells [2]; 48 h, DBG 3 nM, replicate 1
  cell viability: 81.02%
HCC827GR cells [2]; 48 h, DBG 3 nM, replicate 2
  cell viability: 78.86%
HCC827GR cells [2]; 48 h, DBG 3 nM, replicate 3
  cell viability: 79.86%
HCC827GR cells [2]; 48 h, DBG 6 nM, replicate 1
  cell viability: 59.60%
HCC827GR cells [2]; 48 h, DBG 6 nM, replicate 2
  cell viability: 58.31%
HCC827GR cells [2]; 48 h, DBG 6 nM, replicate 3
  cell viability: 59.16%
HCC827GR cells [2]; 48 h, DBG 12 nM, replicate 1
  cell viability: 38.12%
HCC827GR cells [2]; 48 h, DBG 12 nM, replicate 2
  cell viability: 38.18%
HCC827GR cells [2]; 48 h, DBG 12 nM, replicate 3
  cell viability: 39.51%
HCC827GR cells [2]; DBG 3, 6, 12 nM
  viability, in words: suppressed the viability
CDK4; DBG 3, 6, 12 nM, 48 h
  level of CDKs (CDK4): significantly decreased
CDK4; HCC827, DBG 3 nM, DBG 0 nM 0.59
  CDK4 protein/actin: 0.35
CDK4; HCC827, DBG 3 nM
  CDK4 protein ratio: 0.58
CDK4; HCC827, DBG 6 nM, DBG 0 nM 0.59
  CDK4 protein/actin: 0.30
CDK4; HCC827, DBG 6 nM
  CDK4 protein ratio: 0.50
CDK4; HCC827, DBG 12 nM, DBG 0 nM 0.59
  CDK4 protein/actin: 0.32
CDK4; HCC827, DBG 12 nM
  CDK4 protein ratio: 0.53
CDK4; HCC827GR, DBG 3 nM, DBG 0 nM 0.72
  CDK4 protein/actin: 0.61
CDK4; HCC827GR, DBG 3 nM
  CDK4 protein ratio: 0.85
CDK4; HCC827GR, DBG 6 nM, DBG 0 nM 0.72
  CDK4 protein/actin: 0.55
CDK4; HCC827GR, DBG 6 nM
  CDK4 protein ratio: 0.77
CDK4; HCC827GR, DBG 12 nM, DBG 0 nM 0.72
  CDK4 protein/actin: 0.30
CDK4; HCC827GR, DBG 12 nM
  CDK4 protein ratio: 0.42
[3]; HCC827, DBG 3 nM, DBG 0 nM 119.45
  cyto c (mitosol) cyto c/COX4/actin (A): 66.38
[3]; HCC827, DBG 3 nM
  cyto c (mitosol) protein Ratio: 0.56
[3]; HCC827, DBG 6 nM, DBG 0 nM 119.45
  cyto c (mitosol) cyto c/COX4/actin (A): 25.00
[3]; HCC827, DBG 6 nM
  cyto c (mitosol) protein Ratio: 0.21
[3]; HCC827, DBG 12 nM, DBG 0 nM 119.45
  cyto c (mitosol) cyto c/COX4/actin (A): 23.24
[3]; HCC827, DBG 12 nM
  cyto c (mitosol) protein Ratio: 0.19
[3]; HCC827GR, DBG 3 nM, DBG 0 nM 168.86
  cyto c (mitosol) cyto c/COX4/actin (A): 137.25
[3]; HCC827GR, DBG 3 nM
  cyto c (mitosol) protein Ratio: 0.81
[3]; HCC827GR, DBG 6 nM, DBG 0 nM 168.86
  cyto c (mitosol) cyto c/COX4/actin (A): 47.89
[3]; HCC827GR, DBG 6 nM
  cyto c (mitosol) protein Ratio: 0.28
[3]; HCC827GR, DBG 12 nM, DBG 0 nM 168.86
  cyto c (mitosol) cyto c/COX4/actin (A): 7.39
[3]; HCC827GR, DBG 12 nM
  cyto c (mitosol) protein Ratio: 0.0438
EGFR; ADP-Glo, EGFR 4 ng, RT, 60 min, luminescence, n=3
  IC50: 7.23 nM
EGFR; DBG 3, 6, 12 nM
  kinase activity, in words: significantly inhibited
HCC827 cells; DBG 12 nM, mean of 3
  cell viability (relative to untreated = 100.00): 45.66
HCC827 cells; DBG 12 nM, replicate 1
  cell viability (relative to untreated = 100.00): 44.99
HCC827 cells; DBG 12 nM, replicate 2
  cell viability (relative to untreated = 100.00): 46.50
HCC827 cells; DBG 12 nM, replicate 3
  cell viability (relative to untreated = 100.00): 45.48
HCC827 cells; [4]
  cell viability (relative to untreated = 100.00): 94.90
HCC827 cells; [5]
  cell viability (relative to untreated = 100.00): 97.37
HCC827 cells; [6]
  cell viability (relative to untreated = 100.00): 92.86
HCC827 cells; [7]
  cell viability (relative to untreated = 100.00): 94.46
HCC827 cells; NAC 4 mM, 3 h, DBG 48 h
  anticancer activity of DBG after NAC pretreatment: decreased
HCC827 cells; NAC 4 mM, DBG 12 nM
  cytotoxicity after NAC pretreatment: a little, if any, cytotoxicity only at 12 nM
p-MET (Y1234/1235)
  phosphorylation level of MET: decreased
